Several values for one entry are separate records, joined by “and”; a condition that tells them apart may be missing. Equal entries are not always repeated.
System: Aspergillus niger (ATCC 6275)
Experiment: Microtiter XTT growth inhibition assay
Type: cell-based
Conditions: 37° C. 24 hours, XTT read at 465 nm, duplicate plates (Plate 1, Plate 2)
Method: Preparation of the Spore Inoculum—Two sterile petri dishes containing potato dextrose agar are inoculated with Aspergillus niger (ATCC 6275). The plates are incubated for at least 48 hours at 35+1 ° C. At the end of the incubation period, the plates are checked for mycelia and fruiting bodies of the fungus. To prepare the spore-mycelial suspension, the agar surface is scraped with a sterile cotton tip swab. The spores are suspended from the cotton swab in a sterile test tube containing a solution of 0.85% saline and 0.01% Tween 80 (v/v). The spore-mycelial suspension is shaken or vortexed to break up spore and mycelial clumps. Prior to the addition of the spore-mycelial suspension to the test tube containing saline and Tween, a spectrophotometer is set to 650 nm and the absorbance reading is balanced to zero. The optical density (absorbance) of the spore-mycelial suspension is measured in the spectrophotometer. If necessary, the optical density is adjusted to 0.29 absorbance units by addition of diluent or spores. At an optical density of 0.29 absorbance units (at 650 nm), the concentration of spores is 1×10^9 spores/ml. The spore-mycelial suspension is diluted 1/1000 to yield inoculum used for the microtiter assay, having a concentration of 1×10^6 spores/ml.
Microtiter Assay—Six MULTISCREEN filtration plates (96-well MULTISCREEN-GV, clear plates with 0.22 μm membrane; Millipore Corp., Molsheim, France) are used for a three dose response protocol. This protocol and the six MULTISCREEN plates allows for duplication of the experimental results. The three actives employed are BAS49002F (kresoxim methyl at 50 wt %; BASF Corporation, Ludwigshafen, Germany), AF1912 (diiodomethyl-paratolylsulfone; Angus Chemical Company, Buffalo Grove, Ill.), and MBTC (methylenebisthiocyanate; Aldrich Chemical Company, Milwaukee, Wis.). These actives are individually diluted with water to a concentration of 40 ppm actives. Using separate dilution blocks for each active, the actives are serially diluted to reach experimental dose ranges from 10 to 0.156 ppm. Along with the treatments (actives), Sabouraud Dextrose broth (DIFCO Laboratories, Detroit Mich.) and inoculum are added to each well. The microtiter plates are incubated at 37° C. for 24 hours, and after this period a 0.1% solution of XTT (2,3-bis[2-methoxy-4-nitro-5-sulfophenyl]-2H-tetrazolium-5-carboxanilide; Sigma Chemical, Saint Louis, Mo.) and 0.01% of PMS (phenazine methosulfate; Sigma Chemical, Saint Louis, Mo.) are added to each well. The plates are incubated for approximately 3 more hours. Filtration via the MULTISCREEN plates removes the mycelial growth and nonvegetated spores of Aspergillus niger. Each microtiter well is read at 465 nm for the reduction of XTT by metabolically active cells (i.e., a color change from the untreated controls would indicate respiring fungal cells). Growth inhibition results are presented in Table 2, which represents the processed absorbance data that has been converted as a percent inhibition of fungal growth by the three actives tested (BAS49002F, AF1912, and MBTC). The dashed lines in Table 2 indicate negative inhibition values, which indicate that cells were viable, but in futile cell cycles.

## N#CSCSC#N [MBTC, methylenebisthiocyanate]
0.156 ppm actives
  percent inhibition of fungal growth: — (The dashed lines in Table 2 indicate negative inhibition values, which indicate that cells were viable, but in futile cell cycles)
0.31 ppm actives
  percent inhibition of fungal growth: — (The dashed lines in Table 2 indicate negative inhibition values, which indicate that cells were viable, but in futile cell cycles)
0.625 ppm actives
  percent inhibition of fungal growth: — (The dashed lines in Table 2 indicate negative inhibition values, which indicate that cells were viable, but in futile cell cycles)
1.25 ppm actives
  percent inhibition of fungal growth: — (The dashed lines in Table 2 indicate negative inhibition values, which indicate that cells were viable, but in futile cell cycles)
2.5 ppm actives
  percent inhibition of fungal growth: 86% and 84%
5.0 ppm actives
  percent inhibition of fungal growth: 88% and 89%
10.0 ppm actives
  percent inhibition of fungal growth: 88% and 89%
